{"source": "patent US20260337225A1", "about": "“SMALL PEPTIDE AND USE THEREOF IN MUCOSAL REPAIR” (FORREST BIO-PHARM (SHENZHEN) CO., LTD., priority 2022, published 2026)", "key": {"[1]": {"tested_on": "normal human hepatic parenchymal L-02 cells", "assay": "Hepatotoxicity: cytotoxicity in L-02 cells by CCK-8 assay", "assay_type": "cell-based", "conditions": "10-200 μg/mL, 24 h, in words", "description": "Referring to the method from a literature (Determination of emodin in L-02 cells and cell culture media with liquid chromatography-mass spectrometry: Application to a cellular toxicokinetic study. J Pharm Biomed Anal. 2012; 71:71-78), normal human hepatic parenchymal L-02 cells (obtained from Shanghai Cell Bank) were seeded into 96-well plates and treated with small peptides P1 and P2 at concentrations of 0 μg/mL, 10 μg/mL, 20 μg/mL, 50 μg/mL, 100 μg/mL, and 200 μg/mL. After 24-hour stimulation, the cytotoxicity was assessed by Cell Counting Kit-8 (CCK-8) assay."}, "[2]": {"tested_on": "mouse model of acute gastric ulcer", "assay": "Mouse model of acute gastric ulcer (anhydrous ethanol)", "assay_type": "in vivo", "description": "In this embodiment, the function of the small peptides obtained in Embodiment 2 was validated using a mouse model of acute gastric ulcer.\nControl group (model group): A mouse mode of acute gastric ulcer was constructed using anhydrous ethanol (0.1 mL/10 g) (referring to the literature of Study on Action of kangfuxin Solution on Experimental Gastric ulcer [J]. Chinese Traditional Patent Medicine, 2001, 23(2): 122-124. DOI: 10.3969/j.issn.1001-1528.). After modeling, the mice were administered with an equal volume of saline.\nBlank group: The mice were administered with an equal volume of saline.\nDrug treatment groups: A mouse mode of acute gastric ulcer was constructed by treating the mouse with anhydrous ethanol (0.1 mL/10 g). At 2 h, 12 h, and 22 h after modeling, the mice were administered with the rice polypeptide mixture (50 mg/kg) as the mixture group, small peptide P1 (0.5 mg/kg) as the P1 group, and small peptide P2 (0.5 mg/kg) as the P2 group, respectively.\nEach group consisted of 8 mice. After 24 h of modeling, the mice were sacrificed, to extract the gastric tissue, and observe changes in bleeding points and ulcer area via gastric tissue dissection."}, "[3]": {"tested_on": "rat model of chronic gastric ulcer", "assay": "Rat model of chronic gastric ulcer (anhydrous ethanol followed by aspirin)", "assay_type": "in vivo", "description": "The function of the small peptides obtained in Embodiment 2 was validated in the present embodiment by using a rat model of chronic gastric ulcer.\nControl group (model group): A rat model of chronic gastric ulcer model was constructed by intragastric administration of anhydrous ethanol (1 mL/200 g), followed by intragastric administration of 200 mg/kg aspirin 2 h later. The rats were administered with aspirin once daily for 4 days. At day 5, the rats were administered with an equal volume of saline.\nBlank group: The rats were administered with an equal volume of saline.\nDrug treatment groups: A rat model of chronic gastric ulcer was constructed as above-mentioned. At day 5, the rats were respectively administered with the rice polypeptide mixture (50 mg/kg), small peptide P1 (0.5 mg/kg), or small peptide P2 (0.5 mg/kg) twice daily for 3 days. On day 4, the rats were sacrificed and their gastric necropsy was performed.\nPositive control group (omeprazole 2.6 mg/kg): A rat model of chronic gastric ulcer was constructed as above. At day 5, the rats were administered with omeprazole (2.6 mg/kg) twice daily for 3 days. On day 4, The rats were sacrificed and their gastric necropsy was performed.\nEach group consisted of 10 rats. After 24 h of modeling, the rats were sacrificed to extract the gastric tissue, for measuring gastric pH, and observing changes in ulcer area via gastric tissue dissection. Liver and kidney tissues were collected for pathological section observation to assess drug safety."}, "Rat liver": {"tested_on": "Rat liver", "assay": "Animal safety observation: rat liver injury (serum alaninetransaminase activity)", "assay_type": "in vivo", "conditions": "14 days; for Alaninetransaminase Activity, Average / Alaninetransaminase Activity: intragastric gavage, rat serum; for Alaninetransaminase Activity, Average: average of 6 rats, saline average P1 35.83333, P2 30.83333; for Alaninetransaminase Activity: individual rats (Rat 1-6)", "description": "(§1) The rats were administered with the small peptides via intragastric gavage at doses of 500 mg/kg and 1000 mg/kg daily for 14 days. Changes in body weight were recorded. On day 14, the rats were sacrificed to measure alaninetransaminase (ALT) activity and blood urea nitrogen (BUN) levels in rat serum for assessing whether there was hepatotoxicity and nephrotoxicity in rats."}, "mucosal repair": {"tested_on": "mucosal repair", "assay": "Screening of active monomers for mucosal repair effects", "conditions": "repeated experiments and screening; in words", "source_text": "The inventors observed the active monomers in the polypeptide mixture of Polimi-1 rice variety by mass spectrometry analysis of the polypeptides from various ordinary rice varieties and Polimi-1 rice variety. The small peptides identical to ordinary rice varieties and with high levels in ordinary rice varieties were excluded by a method of exclusion. Finally, the small peptides with higher levels in Polimi-1 rice variety and lower levels in other ordinary rice varieties were selected for further study, as well as those with higher levels in Polimi-1 rice variety and absent in other ordinary rice varieties. Since peptides with molecular weights below 1500 Daltons were extracted from the mixed polypeptide mixture previously obtained, other peptides above this threshold were excluded."}, "[4]": {"assay": "Animal safety observation: rat body weight", "assay_type": "in vivo", "conditions": "for Rat body weight: 1000 mg/kg daily, intragastric gavage, individual rats, Rat 1-7 = c1-c7, 1000 mg/kg", "description": "as §1"}, "Rat kidney": {"tested_on": "Rat kidney", "assay": "Animal safety observation: rat kidney injury (serum blood urea nitrogen levels)", "assay_type": "in vivo", "conditions": "14 days; for Blood Urea Nitrogen Levels: intragastric gavage, rat serum, individual rats (Rat 1-6)", "description": "as §1"}, "[5]": {"tested_on": "normal human kidney-2 cells (HK-02, HK-2)", "assay": "Nephrotoxicity: cytotoxicity in HK-2 cells by CCK-8 assay", "assay_type": "cell-based", "conditions": "10-200 μg/mL, 24 h, in words", "description": "Referring to the method from a literature (Sinomenine improve diabetic nephropathy by inhibiting fibrosis and regulating the JAK2/STAT3/SOCS1 pathway in streptozotocin-induced diabetic rats. Life Sci. 2021; 265:118855), normal human kidney-2 cells (HK-02, HK-2) (Shanghai Cell Bank) were seeded into 96-well plates and administered with small peptides P1 and P2 at concentrations of 0 μg/mL, 10 μg/mL, 20 μg/mL, 50 μg/mL, 100 μg/mL, and 200 μg/mL. After 24-hour stimulation, the cytotoxicity was assessed by Cell Counting Kit-8 (CCK-8) assay."}, "[6]": {"conditions": "500 and 1000 mg/kg daily, rats, in words"}}, "note": "Values joined by “and” are separate entries in the source; they are usually repeats but may differ in a detail not shown here. Equal entries are not always repeated. No end group written: not given here."}
{"sequence": "GASRIIGVDL [Small peptide P1, GASRIIGVDL]", "values": [{"measurement": "viability of normal human liver cells L-02", "setting": "[1]", "value": "no effect"}, {"measurement": "hepatotoxicity", "setting": "[1]; L-02 cells", "value": "no hepatotoxicity"}, {"measurement": "Ulcer index", "setting": "[2]; 0.5 mg/kg at 2 h, 12 h and 22 h after modeling, 8 mice, ratio of ulcer area to gastric mucosal tissue area, Control group 58.3 ± 10.1", "value": "8.2 ± 3.1", "unit": "%"}, {"measurement": "Ulcer inhibition rate", "setting": "[2]; 0.5 mg/kg at 2 h, 12 h and 22 h after modeling, percentage reduction in ulcer area compared to the Control group", "value": 85.9, "unit": "%"}, {"measurement": "result compared to the mixture group", "setting": "[2]; 0.5 mg/kg versus mixture 50 mg/kg, in words", "value": "better results than the mixture in larger dose"}, {"measurement": "anti-ulcer effects", "setting": "[2]; 0.5 mg/kg, in words", "value": "excellent anti-ulcer effects"}, {"measurement": "Ulcer index", "setting": "[3]; 0.5 mg/kg twice daily for 3 days, 10 rats, ratio of ulcer area to gastric mucosal tissue area, Control group 40.5 ± 5.3", "value": "5.8 ± 2.5", "unit": "%"}, {"measurement": "Ulcer inhibition rate", "setting": "[3]; 0.5 mg/kg twice daily for 3 days, percentage reduction in ulcer area compared to the Control group", "value": 85.7, "unit": "%"}, {"measurement": "anti-ulcer effects", "setting": "[3]; P1, P2 0.5 mg/kg, mixture 50 mg/kg, in words", "value": "exhibit anti-ulcer effects"}, {"measurement": "P versus Positive control group", "setting": "[3]; anti-ulcer effects compared to omeprazole 2.6 mg/kg, P1, P2 0.5 mg/kg, mixture 50 mg/kg", "value": "> 0.05"}, {"measurement": "Alaninetransaminase Activity, Average", "setting": "Rat liver; 500 mg/kg daily", "value": 27, "unit": "IU/L"}, {"measurement": "Alaninetransaminase Activity", "setting": "Rat liver; 500 mg/kg daily", "value": "35 IU/L and 44 IU/L and 20 IU/L and 15 IU/L and 21 IU/L and 27 IU/L"}, {"measurement": "Alaninetransaminase Activity, Average", "setting": "Rat liver; 1000 mg/kg daily", "value": 39.83, "unit": "IU/L"}, {"measurement": "Alaninetransaminase Activity", "setting": "Rat liver; 1000 mg/kg daily", "value": "32 IU/L and 39 IU/L and 50 IU/L and 27 IU/L and 47 IU/L and 44 IU/L"}, {"measurement": "hepatotoxicity", "setting": "Rat liver; [6]", "value": "without hepatotoxicity"}, {"measurement": "mucosal repair effects", "setting": "mucosal repair", "value": "found to have mucosal repair effects"}, {"measurement": "Rat body weight", "setting": "[4]; Day 1", "value": "210 g and 214 g and 218 g and 217 g and 216 g (2×) and 213 g"}, {"measurement": "Rat body weight", "setting": "[4]; Day 2", "value": "212 g and 215 g (2×) and 219 g and 220 g and 222 g and 217 g"}, {"measurement": "Rat body weight", "setting": "[4]; Day 3", "value": "212 g and 216 g and 220 g and 221 g and 224 g and 209 g and 218 g"}, {"measurement": "Rat body weight", "setting": "[4]; Day 4", "value": "214 g and 218 g"}, {"measurement": "Rat body weight", "setting": "[4]; Day 5", "value": "215 g and 220 g (2×) and 224 g and 228 g (2×) and 225 g"}, {"measurement": "Rat body weight", "setting": "[4]; Day 6", "value": "215 g and 227 g and 224 g and 230 g and 229 g and 223 g and 228 g"}, {"measurement": "Rat body weight", "setting": "[4]; Day 7", "value": "216 g and 228 g and 229 g (2×) and 236 g and 231 g and 224 g"}, {"measurement": "Rat body weight", "setting": "[4]; Day 8", "value": "218 g and 229 g and 232 g and 235 g and 233 g and 228 g and 231 g"}, {"measurement": "Rat body weight", "setting": "[4]; Day 9", "value": "220 g and 229 g and 234 g (2×) and 238 g and 233 g and 230 g"}, {"measurement": "Rat body weight", "setting": "[4]; Day 10", "value": "225 g and 231 g and 237 g and 239 g and 238 g and 234 g and 236 g"}, {"measurement": "Rat body weight", "setting": "[4]; Day 11", "value": "226 g and 232 g and 238 g and 241 g (2×) and 237 g and 239 g"}, {"measurement": "Rat body weight", "setting": "[4]; Day 12", "value": "227 g and 233 g and 238 g and 243 g (2×) and 244 g and 239 g"}, {"measurement": "Rat body weight", "setting": "[4]; Day 13", "value": "228 g and 235 g and 239 g and 244 g (2×) and 248 g and 240 g"}, {"measurement": "Rat body weight", "setting": "[4]; Day 14", "value": "230 g and 237 g and 240 g and 247 g and 249 g and 243 g (2×)"}, {"measurement": "Rat body weight", "setting": "[4]; Day 15", "value": "235 g and 238 g and 242 g and 248 g and 250 g and 245 g (2×)"}, {"measurement": "effects on rat body weight", "setting": "[4]; daily intragastric gavage for 14 days, in words", "value": "minimal effects"}, {"measurement": "Blood Urea Nitrogen Levels", "setting": "Rat kidney; 500 mg/kg daily", "value": "25 mg/dL and 39 mg/dL and 29 mg/dL and 33 mg/dL and 36 mg/dL and 37 mg/dL"}, {"measurement": "Blood Urea Nitrogen Levels", "setting": "Rat kidney; 1000 mg/kg daily", "value": "28 mg/dL and 30 mg/dL (2×) and 32 mg/dL and 36 mg/dL and 34 mg/dL"}, {"measurement": "nephrotoxicity", "setting": "Rat kidney; [6]", "value": "without hepatotoxicity and nephrotoxicity"}, {"measurement": "viability of normal human kidney cells HK-02 (HK-2)", "setting": "[5]", "value": "no effect"}, {"measurement": "nephrotoxicity", "setting": "[5]; HK-2 cells", "value": "no nephrotoxicity"}]}
